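Briefly, cells in 96-well plates were exposed to five compound concentrations for 48 h, and endpoints were estimated by linear interpolation. GI50 marks 50% less growth. Definition used: TGI = concentration required for complete inhibition of growth.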
Key:
Assay in all cases: NCI anticancer screen, dose series, 48 h
EKVX NSCLC = system: EKVX NSCLC
UACC-257 melanoma = system: UACC-257 melanoma
PC-3 prostate = system: PC-3 prostate
CAKI-1 renal = system: CAKI-1 renal
A498 renal = system: A498 renal
SK-OV-3 ovarian = system: SK-OV-3 ovarian
SN12C renal = system: SN12C renal
NCI-H226 lung = system: NCI-H226 lung
HOP-62 NSCLC = system: HOP-62 NSCLC
A549 NSCLC = system: A549 NSCLC
OVCAR-3 ovarian = system: OVCAR-3 ovarian
M14 melanoma = system: M14 melanoma
COLO 205 colon = system: COLO 205 colon
SK-MEL-28 melanoma = system: SK-MEL-28 melanoma
SK-MEL-2 melanoma = system: SK-MEL-2 melanoma
OVCAR-8 ovarian = system: OVCAR-8 ovarian
HCC-2998 colon = system: HCC-2998 colon
ACHN renal = system: ACHN renal
SF-268 CNS = system: SF-268 CNS
CCRF-CEM leukemia = system: CCRF-CEM leukemia
SW-620 colon = system: SW-620 colon
HCT-116 colon = system: HCT-116 colon
SR leukemia = system: SR leukemia
SNB-75 CNS = system: SNB-75 CNS
HOP-92 NSCLC = system: HOP-92 NSCLC
NCI-H460 lung = system: NCI-H460 lung
TK-10 renal = system: TK-10 renal
SNB-19 CNS = system: SNB-19 CNS
U251 CNS = system: U251 CNS
HCT-15 colon = system: HCT-15 colon
OVCAR-5 ovarian = system: OVCAR-5 ovarian
HT29 colon = system: HT29 colon
OVCAR-4 ovarian = system: OVCAR-4 ovarian
KM12 colon = system: KM12 colon
SF-539 CNS = system: SF-539 CNS
MCF7 breast = system: MCF7 breast
IGROV1 ovarian = system: IGROV1 ovarian
SK-MEL-5 melanoma = system: SK-MEL-5 melanoma
T-47D breast = system: T-47D breast
LOX IMVI melanoma = system: LOX IMVI melanoma
K-562 leukemia = system: K-562 leukemia
UO-31 renal = system: UO-31 renal
MDA-MB-231 breast = system: MDA-MB-231 breast
HL-60(TB) leukemia = system: HL-60(TB) leukemia
SF-295 CNS = system: SF-295 CNS
UACC-62 melanoma = system: UACC-62 melanoma
MALME-3M melanoma = system: MALME-3M melanoma
RPMI-8226 leukemia = system: RPMI-8226 leukemia
DU-145 prostate = system: DU-145 prostate
NCI-H522 lung = system: NCI-H522 lung
786-0 renal = system: 786-0 renal
MOLT-4 leukemia = system: MOLT-4 leukemia
NCI-H23 lung = system: NCI-H23 lung
MDA-MB-468 breast = system: MDA-MB-468 breast
RXF 393 renal = system: RXF 393 renal
HS 578T breast = system: HS 578T breast
BT-549 breast = system: BT-549 breast
MDA-MB-435 = system: MDA-MB-435
NCI/ADR-RES ovarian = system: NCI/ADR-RES ovarian

O=C(c1ccc(O)cc1)C1[C@H](c2ccc(Cl)cc2)[C@@H](c2ccccc2)NC12C(=O)Nc1ccc(Br)cc12 (stereo partly drawn)
GI50 (EKVX NSCLC): 11 µM | TGI (EKVX NSCLC): 23.2 µM | GI50 (UACC-257 melanoma): 14.8 µM | TGI (UACC-257 melanoma): 28.6 µM | GI50 (PC-3 prostate): 12.3 µM | TGI (PC-3 prostate): 25.9 µM | GI50 (CAKI-1 renal): 10.8 µM | TGI (CAKI-1 renal): 23.4 µM | GI50 (A498 renal): 13.8 µM | TGI (A498 renal): 27 µM | GI50 (SK-OV-3 ovarian): 14.9 µM | TGI (SK-OV-3 ovarian): 28.3 µM | GI50 (SN12C renal): 14.7 µM | TGI (SN12C renal): 28.4 µM | GI50 (NCI-H226 lung): 13.6 µM | TGI (NCI-H226 lung): 28.9 µM | GI50 (HOP-62 NSCLC): 13.9 µM | TGI (HOP-62 NSCLC): 27.5 µM | GI50 (A549 NSCLC): 11.8 µM | TGI (A549 NSCLC): 25.9 µM | GI50 (OVCAR-3 ovarian): 13.8 µM | TGI (OVCAR-3 ovarian): 28 µM | GI50 (M14 melanoma): 12.8 µM | TGI (M14 melanoma): 25.5 µM | GI50 (COLO 205 colon): 15.8 µM | TGI (COLO 205 colon): 30 µM | GI50 (SK-MEL-28 melanoma): 16.3 µM | TGI (SK-MEL-28 melanoma): 30 µM | GI50 (SK-MEL-2 melanoma): 14.4 µM | TGI (SK-MEL-2 melanoma): 28.3 µM | GI50 (OVCAR-8 ovarian): 15.5 µM | TGI (OVCAR-8 ovarian): 30.7 µM | GI50 (HCC-2998 colon): 14.1 µM | TGI (HCC-2998 colon): 27.3 µM | GI50 (ACHN renal): 12.6 µM | TGI (ACHN renal): 25.2 µM | GI50 (SF-268 CNS): 14.4 µM | TGI (SF-268 CNS): 31 µM | GI50 (CCRF-CEM leukemia): 18.9 µM | TGI (CCRF-CEM leukemia): 45 µM | GI50 (SW-620 colon): 14.4 µM | TGI (SW-620 colon): 28.1 µM | GI50 (HCT-116 colon): 12.6 µM | TGI (HCT-116 colon): 25.1 µM | GI50 (SR leukemia): 10.6 µM | TGI (SR leukemia): 26.2 µM | GI50 (SNB-75 CNS): 10.8 µM | TGI (SNB-75 CNS): 26.2 µM | GI50 (HOP-92 NSCLC): 14.2 µM | TGI (HOP-92 NSCLC): 28.6 µM | GI50 (NCI-H460 lung): 14.7 µM | TGI (NCI-H460 lung): 28.8 µM | GI50 (TK-10 renal): 13.8 µM | TGI (TK-10 renal): 27 µM | GI50 (SNB-19 CNS): 14.6 µM | TGI (SNB-19 CNS): 27.7 µM | GI50 (U251 CNS): 15 µM | TGI (U251 CNS): 29.6 µM | GI50 (HCT-15 colon): 13.6 µM | TGI (HCT-15 colon): 26.8 µM | GI50 (OVCAR-5 ovarian): 13.7 µM | TGI (OVCAR-5 ovarian): 26.6 µM | GI50 (HT29 colon): 14 µM | TGI (HT29 colon): 27.9 µM | GI50 (OVCAR-4 ovarian): 14.3 µM | TGI (OVCAR-4 ovarian): 28.1 µM | GI50 (KM12 colon): 13.4 µM | TGI (KM12 colon): 29.5 µM | GI50 (SF-539 CNS): 14.7 µM | TGI (SF-539 CNS): 28 µM | GI50 (MCF7 breast): 12.2 µM | TGI (MCF7 breast): 25.7 µM | GI50 (IGROV1 ovarian): 12.1 µM | TGI (IGROV1 ovarian): 24.8 µM | GI50 (SK-MEL-5 melanoma): 15.7 µM | TGI (SK-MEL-5 melanoma): 29.1 µM | GI50 (T-47D breast): 11.7 µM | TGI (T-47D breast): 24.1 µM | GI50 (LOX IMVI melanoma): 14 µM | TGI (LOX IMVI melanoma): 27 µM | GI50 (K-562 leukemia): 14.3 µM | TGI (K-562 leukemia): 43.5 µM | GI50 (UO-31 renal): 10.6 µM | TGI (UO-31 renal): 22.4 µM | GI50 (MDA-MB-231 breast): 13.1 µM | TGI (MDA-MB-231 breast): 26 µM | GI50 (HL-60(TB) leukemia): 20.4 µM | TGI (HL-60(TB) leukemia): 46.5 µM | GI50 (SF-295 CNS): 12.4 µM | TGI (SF-295 CNS): 25 µM | GI50 (UACC-62 melanoma): 11.8 µM | TGI (UACC-62 melanoma): 24.1 µM | GI50 (MALME-3M melanoma): 15.1 µM | TGI (MALME-3M melanoma): 28.8 µM | GI50 (RPMI-8226 leukemia): 23.6 µM | TGI (RPMI-8226 leukemia): 69.2 µM | GI50 (DU-145 prostate): 16.6 µM | TGI (DU-145 prostate): 31.6 µM | GI50 (NCI-H522 lung): 13.3 µM | TGI (NCI-H522 lung): 26.6 µM | GI50 (786-0 renal): 1.64 µM | TGI (786-0 renal): 3 µM | GI50 (MOLT-4 leukemia): 11.6 µM | TGI (MOLT-4 leukemia): 32.2 µM | GI50 (NCI-H23 lung): 15.1 µM | TGI (NCI-H23 lung): 29.2 µM | GI50 (MDA-MB-468 breast): 8.82 µM | TGI (MDA-MB-468 breast): 21.3 µM | GI50 (RXF 393 renal): 13 µM | TGI (RXF 393 renal): 26.3 µM | GI50 (HS 578T breast): 15.2 µM | TGI (HS 578T breast): 38.2 µM | GI50 (BT-549 breast): 16.3 µM | TGI (BT-549 breast): 30 µM | GI50 (MDA-MB-435): 16.2 µM | TGI (MDA-MB-435): 31.9 µM | GI50 (NCI/ADR-RES ovarian): 16.6 µM | TGI (NCI/ADR-RES ovarian): 31.5 µM
